Results: article PMC4494771, “Synthesis, structure, and biological activity of novel heterocyclic sulfonyl-carboximidamides” (Monatshefte Fur Chemie, 2013)

Columns and labels:
[1] = system: neonatal human dermal fibroblasts (ATCC PCS-201-010); experiment: Cytotoxic activity, fibroblast proliferation (sulforhodamine B); assay type: cell-based
Experimental: Passage for normal neonatal human dermal fibroblasts (ATCC PCS-201-010, lot 58243223) were grown in DMEM with 5 % calf serum (Hyclone). For the experiment, cells were plated in DMEM/5 % serum at 2,000 cells/well in 96 well plates (plate 598) and were exposed to test materials for 96 h. MAP and bFGF were used as the positive controls and water, 1, 0.5, and 0.25 % DMSO were used as the negative controls. Plate growth was stopped and cells were stained with a sulforhodamine B dye. The dye was then dissolved and a colorimetric signal proportional to total cell/protein count was quantified with the BioRad microplate spectrophotometer 3550-UV at 570 nm with background subtraction at 660 nm and analyzed with Microplate Manager v.2 software for Macintosh (BioRad). Error bars represent standard errors of the mean (SEM). P values representing statistical significance were calculated using the t test.

[2] = system: CCRF-CEM; experiment: NCI-60 DTP human tumor cell line screening; assay type: cell-based; conditions: Leukemia CCRF-CEM
[3] = system: K-562; experiment: NCI-60 DTP human tumor cell line screening; assay type: cell-based
[4] = system: MOLT-4; experiment: NCI-60 DTP human tumor cell line screening; assay type: cell-based; conditions: Leukemia MOLT-4
[5] = system: HOP-62; experiment: NCI-60 DTP human tumor cell line screening; assay type: cell-based; conditions: Non-small cell lung cancer HOP-62
[6] = system: HOP-92; experiment: NCI-60 DTP human tumor cell line screening; assay type: cell-based; conditions: Non-small cell lung cancer HOP-92
[7] = system: NCI-H226; experiment: NCI-60 DTP human tumor cell line screening; assay type: cell-based; conditions: Non-small cell lung cancer NCI-H226
[8] = system: NCI-H322M; experiment: NCI-60 DTP human tumor cell line screening; assay type: cell-based; conditions: Non-small cell lung cancer NCI-H322M
[9] = system: COLO 205; experiment: NCI-60 DTP human tumor cell line screening; assay type: cell-based; conditions: Colon cancer COLO 205
[10] = system: HCC-2998; experiment: NCI-60 DTP human tumor cell line screening; assay type: cell-based; conditions: Colon cancer HCC-2998
[11] = system: HCT-116; experiment: NCI-60 DTP human tumor cell line screening; assay type: cell-based; conditions: Colon cancer HCT-116
[12] = system: HCT-15; experiment: NCI-60 DTP human tumor cell line screening; assay type: cell-based; conditions: Colon cancer HCT-15
[13] = system: HT29; experiment: NCI-60 DTP human tumor cell line screening; assay type: cell-based
[14] = system: SF-268; experiment: NCI-60 DTP human tumor cell line screening; assay type: cell-based; conditions: CNS cancer SF-268
[15] = system: SF-295; experiment: NCI-60 DTP human tumor cell line screening; assay type: cell-based; conditions: CNS cancer SF-295
[16] = system: SNB-19; experiment: NCI-60 DTP human tumor cell line screening; assay type: cell-based; conditions: CNS cancer SNB-19
[17] = system: SNB-75; experiment: NCI-60 DTP human tumor cell line screening; assay type: cell-based; conditions: CNS cancer SNB-75
[18] = system: U251; experiment: NCI-60 DTP human tumor cell line screening; assay type: cell-based; conditions: CNS cancer U251
[19] = system: LOX IMVI; experiment: NCI-60 DTP human tumor cell line screening; assay type: cell-based; conditions: Melanoma LOX IMVI
[20] = system: M-14; experiment: NCI-60 DTP human tumor cell line screening; assay type: cell-based; conditions: Melanoma M-14
[21] = system: MDA-MB-435; experiment: NCI-60 DTP human tumor cell line screening; assay type: cell-based
[22] = system: SK-MEL-2; experiment: NCI-60 DTP human tumor cell line screening; assay type: cell-based; conditions: Melanoma SK-MEL-2
[23] = system: UACC-62; experiment: NCI-60 DTP human tumor cell line screening; assay type: cell-based; conditions: Melanoma UACC-62
[24] = system: IGROV1; experiment: NCI-60 DTP human tumor cell line screening; assay type: cell-based; conditions: Ovarian cancer IGROV1
[25] = system: OVCAR-3; experiment: NCI-60 DTP human tumor cell line screening; assay type: cell-based; conditions: Ovarian cancer OVCAR-3
[26] = system: NCI/ADR-RES; experiment: NCI-60 DTP human tumor cell line screening; assay type: cell-based
[27] = system: CAKI-1; experiment: NCI-60 DTP human tumor cell line screening; assay type: cell-based; conditions: Renal cancer CAKI-1
[28] = system: MDA-MB-231/ATCC; experiment: NCI-60 DTP human tumor cell line screening; assay type: cell-based; conditions: Breast cancer MDA-MB-231/ATCC
[29] = system: T-47D; experiment: NCI-60 DTP human tumor cell line screening; assay type: cell-based; conditions: Breast cancer T-47D
[30] = system: SK-MEL-5; experiment: NCI-60 DTP human tumor cell line screening

Compound: NC(=NS(=O)(=O)c1ccccc1Cl)c1ccc2ccccc2n1 [Compound 15, N′-(2-Chlorophenylsulfonyl)quinoline-2-carboximidamide]
- growth inhibitory activity ([1]; 6.25 μg/cm^3): 70%
- cytotoxic activity on fibroblast proliferation ([1]; 96 h, 6.25–100 μg/cm^3): strongly cytotoxic
- GI50 ([2]; Homo sapiens): 3.65 µM
- TGI [2]: ^c (Determined TGI values were >100 μM)
- inhibition at 10 µM ([3]; Homo sapiens, K562, read-out: Growth inhibition ΔGI): 35.9%
- GI50 ([3]; Homo sapiens, K562, Leukemia K-562): 3.11 µM
- TGI ([3]; Leukemia K-562): ^c (Determined TGI values were >100 μM)
- GI50 ([4]; Homo sapiens): 5.91 µM
- TGI [4]: ^c (Determined TGI values were >100 μM)
- GI50 ([5]; Homo sapiens): 5.37 µM
- TGI [5]: ^c (Determined TGI values were >100 μM)
- GI50 ([6]; Homo sapiens): 9.34 µM
- TGI [6]: 90.80 µM
- GI50 ([7]; Homo sapiens): 10.8 µM
- TGI [7]: ^c (Determined TGI values were >100 μM)
- GI50 ([8]; Homo sapiens): 5.19 µM
- TGI [8]: ^c (Determined TGI values were >100 μM)
- TGI [9]: 16.00 µM
- GI50 ([9]; Homo sapiens): 3.68 µM
- TGI [10]: 59.40 µM
- GI50 ([10]; Homo sapiens): 9.63 µM
- TGI [11]: ^c (Determined TGI values were >100 μM)
- GI50 ([11]; Homo sapiens): 4.66 µM
- TGI [12]: ^c (Determined TGI values were >100 μM)
- GI50 ([12]; Homo sapiens): 4.23 µM
- TGI ([13]; Colon cancer HT29): 14.90 µM
- inhibition at 10 µM ([13]; Homo sapiens, HT-29, read-out: Growth inhibition ΔGI): 60.4%
- GI50 ([13]; Homo sapiens, HT-29, Colon cancer HT29): 3.4 µM
- TGI [14]: ^c (Determined TGI values were >100 μM)
- GI50 ([14]; Homo sapiens): 6.79 µM
- TGI [15]: 86.30 µM
- GI50 ([15]; Homo sapiens): 3.83 µM
- TGI [16]: ^c (Determined TGI values were >100 μM)
- GI50 ([16]; Homo sapiens): 5.61 µM
- TGI [17]: 30.60 µM
- GI50 ([17]; Homo sapiens): 2.52 µM
- TGI [18]: ^c (Determined TGI values were >100 μM)
- GI50 ([18]; Homo sapiens, U-251): 4.48 µM
- GI50 ([19]; Homo sapiens): 4.05 µM
- TGI [19]: ^c (Determined TGI values were >100 μM)
- GI50 ([20]; Homo sapiens, M14): 3.61 µM
- TGI [20]: ^c (Determined TGI values were >100 μM)
- inhibition at 10 µM ([21]; Homo sapiens, MDA-MB-435, read-out: Growth inhibition ΔGI): 80.4%
- GI50 ([21]; Homo sapiens, Melanoma MDA-MB-435): 1.13 µM
- TGI ([21]; Melanoma MDA-MB-435): 3.78 µM
- GI50 ([22]; Homo sapiens): 3.4 µM
- TGI [22]: ^c (Determined TGI values were >100 μM)
- GI50 ([23]; Homo sapiens): 6.07 µM
- TGI [23]: ^c (Determined TGI values were >100 μM)
- GI50 ([24]; Homo sapiens, IGROV-1): 9.42 µM
- TGI [24]: ^c (Determined TGI values were >100 μM)
- GI50 [25]: 9.27 µM
- inhibition at 10 µM ([26]; Homo sapiens, NCI/ADR-RES, read-out: Growth inhibition ΔGI): 42.9%
- GI50 ([26]; Homo sapiens, Ovarian cancer NCI/ADR-RES): 2.32 µM
- TGI ([26]; Ovarian cancer NCI/ADR-RES): 50.50 µM
- GI50 ([27]; Homo sapiens): 5.21 µM
- TGI [27]: ^c (Determined TGI values were >100 μM)
- TGI [28]: ^c (Determined TGI values were >100 μM)
- GI50 ([28]; Homo sapiens): 13 µM
- TGI [29]: ^c (Determined TGI values were >100 μM)
- GI50 ([29]; Homo sapiens, T47D): 7.04 µM
- GI50 ([30]; Homo sapiens, SK-MEL-5): 3.31 µM
- CC50 ([30]; Homo sapiens, SK-MEL-5, read-out: LC 50): 36.2 µM
- TGI ([30]; Melanoma SK-MEL-5): 50.50 µM
